Test results as given in doi:10.1101/211839v1 (biorxiv, 2017).

How the values were obtained:
HDAC11 (untagged) [1] = biological target: T1, HDAC11 (untagged) (Homo sapiens, UniProt Q96DB2); assay: end-point fluorescence demyristoylase assay, trypsin release of AMC; type: biochemical
T1 sequence (Q96DB2 1-347): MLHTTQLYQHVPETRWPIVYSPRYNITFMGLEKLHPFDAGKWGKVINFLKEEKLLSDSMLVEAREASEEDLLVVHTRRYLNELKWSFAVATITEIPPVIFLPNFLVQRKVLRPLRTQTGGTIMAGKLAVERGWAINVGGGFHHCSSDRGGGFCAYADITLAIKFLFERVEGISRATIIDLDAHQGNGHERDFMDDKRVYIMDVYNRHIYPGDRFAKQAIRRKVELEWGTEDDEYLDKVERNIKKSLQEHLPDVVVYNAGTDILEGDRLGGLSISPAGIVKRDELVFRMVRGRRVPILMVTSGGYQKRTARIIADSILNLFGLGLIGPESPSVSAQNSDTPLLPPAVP

HDAC11 (untagged) [2] = biological target: T1, HDAC11 (untagged); assay: continuous fluorescence assay, trypsin-coupled, initial rates; type: biochemical; details: […] enzyme, HEPES pH […], no BSA, […] °C

Row | Compound | IC50 (HDAC11 (untagged) [1]) | Km (HDAC11 (untagged) [2])
1 | C/C=C1\NC(=O)[C@H]2CSSCC/C=C/[C@H](CC(=O)N[C@H](C(C)C)C(=O)N2)OC(=O)[C@H](C(C)C)NC1=O [romidepsin] | > 100 µM | –
2 | Ac-ETDKmyr-AMC [6e] | – | 60 µM
